From ChEMBL document CHEMBL3132769, “Fragment growing to retain or alter the selectivity of anchored kinase hinge-binding fragments” (Medchemcomm, 2014)

Assays:
[1] = biological target: Tyrosine-protein kinase ABL1 (Homo sapiens) (UniProt P00519); test: Inhibition of human full-length ABL expressed in baculovirus assessed as substrate phosphorylation using fluorescence-labelled peptides as substrate at 9 uM after 90 mins by microfluidic peptide phosphorylation assay
[2] = biological target: T1, Protein kinase C epsilon type (Homo sapiens) (UniProt Q02156); test: Inhibition of human truncated PKC epsilon expressed in baculovirus assessed as substrate phosphorylation using fluorescence-labelled peptides as substrate at 9 uM after 90 mins by microfluidic peptide phosphorylation assay
T1 sequence (whole entry): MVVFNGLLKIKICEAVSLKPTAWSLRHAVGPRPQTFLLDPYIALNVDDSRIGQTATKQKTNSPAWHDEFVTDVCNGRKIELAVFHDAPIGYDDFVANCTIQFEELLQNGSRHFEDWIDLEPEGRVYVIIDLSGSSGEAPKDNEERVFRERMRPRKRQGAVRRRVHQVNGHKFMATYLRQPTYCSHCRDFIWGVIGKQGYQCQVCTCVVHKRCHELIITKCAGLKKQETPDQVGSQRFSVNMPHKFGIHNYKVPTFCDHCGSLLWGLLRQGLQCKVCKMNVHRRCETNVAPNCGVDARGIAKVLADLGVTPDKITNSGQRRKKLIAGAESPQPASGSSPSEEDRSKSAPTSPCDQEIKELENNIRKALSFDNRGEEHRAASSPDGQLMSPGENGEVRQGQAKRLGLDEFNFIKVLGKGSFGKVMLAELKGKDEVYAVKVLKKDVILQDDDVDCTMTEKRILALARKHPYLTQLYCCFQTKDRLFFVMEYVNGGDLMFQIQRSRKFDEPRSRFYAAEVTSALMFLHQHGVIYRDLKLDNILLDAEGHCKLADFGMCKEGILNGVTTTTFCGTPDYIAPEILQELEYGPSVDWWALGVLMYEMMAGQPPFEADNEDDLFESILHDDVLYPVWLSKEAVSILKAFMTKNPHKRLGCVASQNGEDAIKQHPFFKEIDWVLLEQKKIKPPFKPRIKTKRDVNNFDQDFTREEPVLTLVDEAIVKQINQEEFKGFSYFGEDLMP

[3] = biological target: Calcium/calmodulin-dependent protein kinase type II subunit gamma (Homo sapiens) (UniProt Q13555); details: 0.1 uM
Description: Inhibition of human CAMK2 gamma catalytic domain expressed in baculovirus assessed as substrate phosphorylation using fluorescence-labelled peptides as substrate at 0.1 uM after 90 mins by microfluidic peptide phosphorylation assay

[4] = biological target: Rho-associated protein kinase 2 (Homo sapiens) (UniProt O75116); details: 0.1 uM
Description: Inhibition of human ROCK2 catalytic domain expressed in baculovirus assessed as substrate phosphorylation using fluorescence-labelled peptides as substrate at 0.1 uM after 90 mins by microfluidic peptide phosphorylation assay

[5] = biological target: RAC-alpha serine/threonine-protein kinase (Homo sapiens) (UniProt P31749); details: 0.1 uM
Description: Inhibition of human AKT1 catalytic domain expressed in baculovirus assessed as substrate phosphorylation using fluorescence-labelled peptides as substrate at 0.1 uM after 90 mins by microfluidic peptide phosphorylation assay

[6] = test system: T2, Receptor-type tyrosine-protein kinase FLT3 (Homo sapiens), P36888 [D835Y]; test: Inhibition of human FLT3 D835Y mutant catalytic domain expressed in baculovirus assessed as substrate phosphorylation using fluorescence-labelled peptides as substrate at 70 uM after 90 mins by microfluidic peptide phosphorylation assay
T2 sequence (whole entry): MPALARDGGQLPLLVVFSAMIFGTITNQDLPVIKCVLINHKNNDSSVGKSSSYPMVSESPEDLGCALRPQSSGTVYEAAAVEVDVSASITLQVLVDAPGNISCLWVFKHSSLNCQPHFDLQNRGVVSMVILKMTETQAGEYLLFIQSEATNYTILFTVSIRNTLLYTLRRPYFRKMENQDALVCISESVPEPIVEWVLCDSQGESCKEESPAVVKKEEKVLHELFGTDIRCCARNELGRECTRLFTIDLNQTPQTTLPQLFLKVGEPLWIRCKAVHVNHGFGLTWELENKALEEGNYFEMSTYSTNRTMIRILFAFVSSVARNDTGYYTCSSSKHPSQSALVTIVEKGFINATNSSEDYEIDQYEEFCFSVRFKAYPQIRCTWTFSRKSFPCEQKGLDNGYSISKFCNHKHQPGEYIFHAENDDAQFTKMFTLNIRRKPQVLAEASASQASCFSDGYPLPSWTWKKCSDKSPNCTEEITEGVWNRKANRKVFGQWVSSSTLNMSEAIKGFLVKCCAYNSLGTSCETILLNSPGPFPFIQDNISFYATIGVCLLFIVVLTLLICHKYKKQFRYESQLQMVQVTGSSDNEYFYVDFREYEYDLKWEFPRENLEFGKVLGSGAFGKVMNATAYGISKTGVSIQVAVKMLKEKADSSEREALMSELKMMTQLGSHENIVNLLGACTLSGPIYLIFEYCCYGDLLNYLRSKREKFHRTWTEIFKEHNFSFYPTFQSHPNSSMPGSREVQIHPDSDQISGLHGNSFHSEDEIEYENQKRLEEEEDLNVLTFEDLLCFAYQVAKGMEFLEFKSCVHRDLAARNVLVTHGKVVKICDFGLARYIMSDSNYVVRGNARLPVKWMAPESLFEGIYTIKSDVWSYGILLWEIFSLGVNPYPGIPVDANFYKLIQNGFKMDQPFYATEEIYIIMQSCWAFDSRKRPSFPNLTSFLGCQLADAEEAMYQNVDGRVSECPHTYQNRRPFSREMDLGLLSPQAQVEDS

[7] = biological target: Protein kinase C alpha type (Homo sapiens) (UniProt P17252); test: Inhibition of human truncated PKC alpha expressed in baculovirus assessed as substrate phosphorylation using fluorescence-labelled peptides as substrate at 0.2 uM after 90 mins by microfluidic peptide phosphorylation assay
[8] = biological target: T3, MAP kinase-activated protein kinase 5 (Homo sapiens) (UniProt Q8IW41); test: Inhibition of human full length PRAK expressed in baculovirus assessed as substrate phosphorylation using fluorescence-labelled peptides as substrate at 0.2 uM after 90 mins by microfluidic peptide phosphorylation assay
T3 sequence (whole entry): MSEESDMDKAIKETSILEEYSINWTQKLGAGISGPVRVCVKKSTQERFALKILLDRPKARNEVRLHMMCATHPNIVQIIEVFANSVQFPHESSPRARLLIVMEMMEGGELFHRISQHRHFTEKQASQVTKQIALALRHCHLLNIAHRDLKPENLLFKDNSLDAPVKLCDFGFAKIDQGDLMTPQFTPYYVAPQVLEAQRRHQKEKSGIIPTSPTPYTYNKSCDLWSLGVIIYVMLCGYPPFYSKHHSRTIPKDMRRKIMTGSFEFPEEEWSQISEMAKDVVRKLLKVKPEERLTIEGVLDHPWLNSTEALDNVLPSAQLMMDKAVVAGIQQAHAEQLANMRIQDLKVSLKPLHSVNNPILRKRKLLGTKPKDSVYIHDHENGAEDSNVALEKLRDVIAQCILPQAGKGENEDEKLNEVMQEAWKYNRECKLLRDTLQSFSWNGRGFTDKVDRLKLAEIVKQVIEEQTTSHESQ

[9] = biological target: Tyrosine-protein kinase ABL1 (Homo sapiens) (UniProt P00519); test: Inhibition of human full-length ABL expressed in baculovirus assessed as substrate phosphorylation using fluorescence-labelled peptides as substrate at 1000 uM after 90 mins by microfluidic peptide phosphorylation assay
[10] = test system: Tyrosine-protein kinase ABL1 (Homo sapiens), P00519 [H396P]; test: Inhibition of human truncated ABL H396P mutant expressed in baculovirus assessed as substrate phosphorylation using fluorescence-labelled peptides as substrate at 1000 uM after 90 mins by microfluidic peptide phosphorylation assay

RAC-alpha serine/threonine-protein kinase (Homo sapiens), sequence (P31749 whole entry, the tested form may be a part): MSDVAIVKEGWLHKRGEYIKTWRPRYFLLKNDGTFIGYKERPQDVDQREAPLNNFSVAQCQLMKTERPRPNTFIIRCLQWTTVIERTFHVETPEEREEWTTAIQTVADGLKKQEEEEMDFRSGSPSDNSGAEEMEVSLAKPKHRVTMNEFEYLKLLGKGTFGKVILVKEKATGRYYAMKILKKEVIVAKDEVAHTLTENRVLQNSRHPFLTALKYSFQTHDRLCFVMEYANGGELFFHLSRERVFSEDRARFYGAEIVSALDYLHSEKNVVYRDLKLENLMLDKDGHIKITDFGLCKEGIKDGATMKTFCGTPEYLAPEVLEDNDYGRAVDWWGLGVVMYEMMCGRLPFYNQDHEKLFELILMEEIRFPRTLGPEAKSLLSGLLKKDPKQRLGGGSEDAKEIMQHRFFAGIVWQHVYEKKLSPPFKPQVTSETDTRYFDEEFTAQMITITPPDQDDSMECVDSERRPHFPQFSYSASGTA
Rho-associated protein kinase 2 (Homo sapiens), sequence (O75116 whole entry, looked up): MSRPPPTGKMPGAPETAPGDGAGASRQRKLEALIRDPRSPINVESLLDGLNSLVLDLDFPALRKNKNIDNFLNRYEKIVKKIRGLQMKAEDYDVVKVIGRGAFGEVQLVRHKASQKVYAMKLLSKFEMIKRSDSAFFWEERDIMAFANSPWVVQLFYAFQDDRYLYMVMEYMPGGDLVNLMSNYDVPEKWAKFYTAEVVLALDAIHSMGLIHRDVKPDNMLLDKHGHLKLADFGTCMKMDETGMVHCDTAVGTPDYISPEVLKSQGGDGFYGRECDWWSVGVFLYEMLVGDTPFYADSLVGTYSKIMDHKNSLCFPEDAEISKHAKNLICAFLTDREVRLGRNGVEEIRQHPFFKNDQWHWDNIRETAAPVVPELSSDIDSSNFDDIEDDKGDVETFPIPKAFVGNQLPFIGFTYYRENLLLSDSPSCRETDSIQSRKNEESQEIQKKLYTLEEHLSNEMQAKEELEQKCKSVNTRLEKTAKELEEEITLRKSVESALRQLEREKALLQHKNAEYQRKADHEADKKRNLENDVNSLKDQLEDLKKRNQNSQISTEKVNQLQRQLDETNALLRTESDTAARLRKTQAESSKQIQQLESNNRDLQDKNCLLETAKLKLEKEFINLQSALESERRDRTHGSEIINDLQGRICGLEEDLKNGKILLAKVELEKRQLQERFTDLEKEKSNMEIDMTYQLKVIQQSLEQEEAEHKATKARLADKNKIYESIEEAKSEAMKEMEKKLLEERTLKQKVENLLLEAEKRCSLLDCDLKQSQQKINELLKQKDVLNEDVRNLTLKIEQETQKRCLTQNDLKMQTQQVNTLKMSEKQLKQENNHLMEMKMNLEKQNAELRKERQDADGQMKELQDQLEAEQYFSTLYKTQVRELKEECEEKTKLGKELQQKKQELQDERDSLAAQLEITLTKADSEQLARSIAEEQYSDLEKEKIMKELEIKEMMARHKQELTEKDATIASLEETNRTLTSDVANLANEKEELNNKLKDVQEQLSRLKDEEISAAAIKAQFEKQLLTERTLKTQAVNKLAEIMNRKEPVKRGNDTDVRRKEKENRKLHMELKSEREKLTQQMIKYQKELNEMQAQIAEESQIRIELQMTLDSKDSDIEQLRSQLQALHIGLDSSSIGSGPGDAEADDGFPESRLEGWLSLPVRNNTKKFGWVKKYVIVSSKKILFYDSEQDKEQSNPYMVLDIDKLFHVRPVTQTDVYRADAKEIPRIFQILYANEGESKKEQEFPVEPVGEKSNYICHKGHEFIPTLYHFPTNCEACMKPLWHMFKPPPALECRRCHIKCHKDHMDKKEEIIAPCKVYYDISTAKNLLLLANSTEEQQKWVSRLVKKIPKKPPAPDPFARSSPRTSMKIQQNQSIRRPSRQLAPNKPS
Calcium/calmodulin-dependent protein kinase type II subunit gamma (Homo sapiens), sequence (Q13555 whole entry): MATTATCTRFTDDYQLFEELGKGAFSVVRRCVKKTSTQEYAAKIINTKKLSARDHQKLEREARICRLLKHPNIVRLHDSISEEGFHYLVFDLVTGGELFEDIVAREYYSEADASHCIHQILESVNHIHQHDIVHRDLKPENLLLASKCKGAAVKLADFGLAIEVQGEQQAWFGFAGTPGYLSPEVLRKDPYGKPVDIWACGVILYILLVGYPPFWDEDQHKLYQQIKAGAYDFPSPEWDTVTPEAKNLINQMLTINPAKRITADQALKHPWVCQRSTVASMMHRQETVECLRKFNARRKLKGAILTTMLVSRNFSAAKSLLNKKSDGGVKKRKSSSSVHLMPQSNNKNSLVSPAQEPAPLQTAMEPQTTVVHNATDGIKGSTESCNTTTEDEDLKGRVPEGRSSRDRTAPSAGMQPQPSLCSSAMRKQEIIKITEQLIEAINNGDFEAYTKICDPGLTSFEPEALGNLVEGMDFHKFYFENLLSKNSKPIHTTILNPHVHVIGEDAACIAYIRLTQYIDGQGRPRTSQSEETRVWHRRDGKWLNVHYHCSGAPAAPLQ

For `NCC1CN(c2ncnc3[nH]c4cnccc4c23)CCO1` (stereo not given), the inhibition [1] was 12% and the inhibition [2] was 14.5%.

For `C[C@H](CN(C)C)Oc1nc(Nc2cc3cccc(Cl)c3cn2)cnc1C#N`, the inhibition [3] was 0%, the inhibition [4] was 0% and the inhibition [5] was 0%.

For `CNCc1ccc(-c2ncnc3[nH]cnc23)cc1`, the inhibition [6] was 69%.

`Clc1ccc(C2(c3ccc(-c4ncnc5[nH]cnc45)cc3)CCNCC2)cc1` gave an inhibition [7] of 77.5% and an inhibition [8] of 8.5%.

For `c1cnc2[nH]ccc2c1`, the inhibition [9] was 42% and the inhibition [10] was 44.5%.
